# The supplement of paper PMC10307832
# Columns and labels:
# Assay in all cases: relative viability (nuclei count vs DMSO), 5 days (fraction); higher = more cells survive
# Olaparib + Pemetrexed = compound: O=C(c1cc(Cc2n[nH]c(=O)c3ccccc23)ccc1F)N1CCN(C(=O)C2CC2)CC1 [Olaparib] + Nc1nc2[nH]cc(CCc3ccc(C(=O)N[C@@H](CCC(=O)O)C(=O)O)cc3)c2c(=O)[nH]1 [Pemetrexed] (partner 0.2 µM)
# Summary of the method: (§1)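 Lung cancer cell lines were pin-tool dosed in 1536-well plates on the day after seeding, with either a lone drug or a fixed anchor-drug dose plus five library-drug doses (not always all listed) in √10 steps. Nuclei were counted on 4× images after 5 days. Relative viability is the ratio of treated-well to vehicle-well nuclei counts, with each value a median of duplicate plates.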
# Olaparib + Bortezomib = compound: O=C(c1cc(Cc2n[nH]c(=O)c3ccccc23)ccc1F)N1CCN(C(=O)C2CC2)CC1 [Olaparib] + CC(C)C[C@H](NC(=O)[C@H](Cc1ccccc1)NC(=O)c1cnccn1)B(O)O [Bortezomib] (partner 0.002 µM)
# Summary of the method: as §1
# Crizotinib + Olaparib = compound: C[C@@H](Oc1cc(-c2cnn(C3CCNCC3)c2)cnc1N)c1c(Cl)ccc(F)c1Cl [Crizotinib] + O=C(c1cc(Cc2n[nH]c(=O)c3ccccc23)ccc1F)N1CCN(C(=O)C2CC2)CC1 [Olaparib] (partner 8 µM)
# Summary of the method: as §1
# Crizotinib + AZD7762 = compound: C[C@@H](Oc1cc(-c2cnn(C3CCNCC3)c2)cnc1N)c1c(Cl)ccc(F)c1Cl [Crizotinib] + NC(=O)Nc1cc(-c2cccc(F)c2)sc1C(=O)N[C@H]1CCCNC1 [AZD7762] (partner 0.2 µM)
# Summary of the method: as §1
Cell Line,relative viability (Olaparib + Pemetrexed; first compound 0.08 µM),relative viability (Olaparib + Pemetrexed; first compound 0.253 µM),relative viability (Olaparib + Pemetrexed; first compound 2.53 µM),relative viability (Olaparib + Pemetrexed; first compound 8 µM),relative viability (Olaparib + Bortezomib; first compound 0.08 µM),relative viability (Olaparib + Bortezomib; first compound 0.253 µM),relative viability (Olaparib + Bortezomib; first compound 2.53 µM),relative viability (Olaparib + Bortezomib; first compound 8 µM),relative viability (Crizotinib + Olaparib; first compound 0.01 µM),relative viability (Crizotinib + Olaparib; first compound 0.03162 µM),relative viability (Crizotinib + Olaparib; first compound 0.1 µM),relative viability (Crizotinib + Olaparib; first compound 0.3162 µM),relative viability (Crizotinib + Olaparib; first compound 1 µM),relative viability (Crizotinib + AZD7762; first compound 0.01 µM),relative viability (Crizotinib + AZD7762; first compound 0.03162 µM),relative viability (Crizotinib + AZD7762; first compound 0.1 µM),relative viability (Crizotinib + AZD7762; first compound 0.3162 µM),relative viability (Crizotinib + AZD7762; first compound 1 µM)
HARA,0.274,0.251,0.272,0.232,1.25,1.04,1.06,0.769,0.876,0.929,0.957,0.793,0.635,0.216,0.274,0.679,0.382,0.516
HCC-15,0.215,0.224,0.209,0.221,1.18,0.984,1.03,0.9,0.724,0.648,0.712,0.76,0.772,1.07,0.721,1.2,,1.14
HCC-44,0.658,0.619,0.716,0.748,0.915,0.873,0.952,0.893,0.923,1.04,1.05,0.955,1,0.971,0.997,1.04,0.936,1.02
HCC-78,0.885,0.886,0.906,0.908,0.489,0.545,0.496,0.537,0.737,0.646,0.705,0.681,0.837,0.657,0.686,0.618,0.572,0.487
HCC-366,0.165,0.195,0.206,0.271,1.06,0.959,0.913,0.384,0.357,0.357,0.329,,0.356,0.239,0.324,0.309,,0.289
HCC-827,0.27,0.275,0.253,0.261,1.01,0.943,1.03,0.95,0.618,0.58,0.637,0.517,0.655,0.236,0.201,0.184,0.174,0.217
HOP-62,0.353,0.316,0.337,0.322,1.21,0.55,0.556,0.211,0.38,0.415,0.479,0.316,0.504,0.447,0.508,0.622,0.565,0.633
LC-2-ad,0.25,0.252,0.28,0.276,1.15,0.922,0.908,0.556,0.806,0.689,0.712,,0.751,0.779,0.854,0.846,,0.853
LCLC-97TM1,0.209,0.209,0.2,0.141,0.729,0.475,1.03,0.276,0.308,0.32,0.353,0.384,0.428,0.193,0.138,0.252,0.104,0.339
LCLC-103H,0.421,0.499,0.493,0.426,1.04,1.07,1.05,0.948,0.824,0.766,0.794,0.816,0.749,0.798,0.78,0.877,0.839,0.804
LOU-NH91,0.389,0.366,0.381,0.343,0.502,0.462,0.512,0.394,0.917,0.876,0.925,0.848,0.912,0.778,0.82,0.796,0.719,0.716
LU99A,0.187,0.212,0.161,0.148,1.13,0.96,0.726,0.626,0.246,0.258,0.272,0.236,0.266,0.276,0.362,0.34,0.32,0.407
LXF-289,1,0.883,0.963,1,1.09,0.941,1.03,0.992,0.994,1.12,1.15,0.993,1.11,1.05,1.11,1.16,1,1.19
NCI-H23,0.756,0.614,0.654,0.473,1.28,0.717,0.581,0.482,0.317,0.271,0.317,,0.388,0.281,0.323,0.297,,0.261
NCI-H322M,0.607,0.608,0.619,0.544,1.27,1.19,1.2,1.24,,0.839,0.746,0.658,0.777,,0.575,0.609,0.547,0.584
NCI-H441,0.28,0.279,0.287,0.239,,0.175,0.489,0.382,0.595,0.444,0.583,0.517,0.587,0.998,1.03,1.12,1.09,1.21
NCI-H460,0.055,0.0542,0.0654,0.0663,1.14,1.02,0.891,0.277,0.463,0.457,0.455,,0.423,0.592,0.64,0.665,,0.607
NCI-H596,0.592,0.496,0.493,0.543,1.3,0.878,0.865,0.794,0.698,0.675,0.695,0.642,0.671,1.05,1.01,1.03,,1.16
NCI-H647,0.193,0.156,0.138,0.15,1.18,0.942,0.864,0.416,0.444,0.68,0.564,0.505,0.597,0.444,0.626,0.403,0.394,0.595
NCI-H650,0.912,0.901,0.871,0.776,0.978,0.672,0.561,0.516,0.481,0.465,0.396,,0.346,1.03,0.979,0.815,,0.945
NCI-H838,0.25,0.226,0.239,0.246,0.956,0.738,0.771,0.9,0.712,0.763,0.78,0.712,0.726,0.975,0.919,0.969,0.9,0.974
NCI-H1355,1.04,1.01,1.05,1.08,1.19,1.14,1.15,1.12,0.714,0.715,0.797,0.622,0.728,0.678,0.707,0.867,0.675,0.769
NCI-H1437,0.345,0.3,0.32,0.325,0.504,0.422,0.529,0.424,0.625,0.608,0.627,0.651,0.66,1.03,1.13,1.09,1.13,1.09
NCI-H1651,0.624,0.586,0.553,0.334,0.892,0.901,0.781,0.451,0.183,0.2,0.185,0.173,0.194,0.438,0.472,0.409,0.483,0.463
NCI-H1666,0.945,0.772,0.856,0.822,0.771,0.799,0.633,0.65,0.711,0.788,0.819,0.695,0.771,0.78,0.899,0.828,0.825,
NCI-H1734,0.417,0.398,0.387,0.362,1.06,0.835,0.91,0.614,0.63,0.574,0.624,,0.608,0.51,0.509,0.553,,0.616
NCI-H1755,0.447,0.68,0.419,0.396,1.03,0.92,0.921,0.893,0.779,0.867,0.854,0.923,0.827,0.407,0.423,0.539,0.411,0.455
NCI-H1792,0.86,0.547,0.605,0.398,1.02,0.735,0.804,0.784,0.505,0.458,0.378,,0.37,0.634,0.881,0.626,,0.63
NCI-H1915,0.553,0.493,0.511,0.419,0.957,0.758,0.792,0.645,0.228,0.257,0.259,0.222,0.26,0.66,0.682,0.739,0.694,0.704
NCI-H1975,0.304,0.265,0.303,0.275,0.424,0.364,0.403,0.319,0.806,0.743,0.794,0.749,0.774,0.641,0.784,0.771,0.684,0.636
